Source: article PMC9668280, “3H-1,2-Benzoxaphosphepine 2-oxides as selective inhibitors of carbonic anhydrase IX and XII” (Journal of Enzyme Inhibition and Medicinal Chemistry, 2022)
Like-named read-outs stand apart in the source and are kept apart here.

What was measured:
Assay in all cases: stopped-flow CO2 hydration assay
Format in all cases: biochemical
hCA I = target: T1, hCA I (Homo sapiens, UniProt P00915); conditions: read-out: KI (μM)^a,b / hCA I
T1 construct: gene CA1; recombinant, obtained in-house
Excerpt: stopped-flow CO2 hydration assay on hCA I

hCA IX = target: T2, hCA IX (Homo sapiens, UniProt Q16790); conditions: read-out: KI (μM)^a,b / hCA IX
T2 construct: gene CA9; recombinant, obtained in-house
Excerpt: stopped-flow CO2 hydration assay on hCA IX

hCA II [1] = target: T3, hCA II (Homo sapiens, UniProt P00918); conditions: CO2 […], […] HEPES pH […] NaClO4, […] h preincubation at room temperature; read-out: KI (μM)^a,b / hCA I
T3 construct: gene CA2; recombinant, obtained in-house

hCA XII = target: T4, hCA XII (Homo sapiens, UniProt O43570); conditions: read-out: KI (μM)^a,b / hCA XII
T4 construct: gene CA12; recombinant, obtained in-house
Excerpt: stopped-flow CO2 hydration assay on hCA XII

hCA II [2] = target: T3, hCA II; conditions: CO2 1.7-17 mM, 20 mM HEPES pH 7.4, 20 mM NaClO4, 6 h preincubation at room temperature; read-out: KI (μM)^a,b / hCA I
Excerpt: stopped-flow CO2 hydration assay on hCA II

[3] = CO2 […], […] HEPES pH […] NaClO4, […] h preincubation at room temperature
[4] = CO2 1.7-17 mM, 20 mM HEPES pH 7.4, 20 mM NaClO4, 6 h preincubation at room temperature

T1 sequence (P00915 2-261): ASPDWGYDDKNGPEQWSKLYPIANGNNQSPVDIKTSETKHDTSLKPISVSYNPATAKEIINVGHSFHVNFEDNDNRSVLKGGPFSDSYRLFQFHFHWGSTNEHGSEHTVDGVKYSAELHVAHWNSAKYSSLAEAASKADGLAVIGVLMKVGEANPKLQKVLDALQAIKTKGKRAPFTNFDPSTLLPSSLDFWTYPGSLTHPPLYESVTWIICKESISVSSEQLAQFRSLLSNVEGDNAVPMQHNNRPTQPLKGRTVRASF
T4 sequence (O43570 25-354 limits assumed): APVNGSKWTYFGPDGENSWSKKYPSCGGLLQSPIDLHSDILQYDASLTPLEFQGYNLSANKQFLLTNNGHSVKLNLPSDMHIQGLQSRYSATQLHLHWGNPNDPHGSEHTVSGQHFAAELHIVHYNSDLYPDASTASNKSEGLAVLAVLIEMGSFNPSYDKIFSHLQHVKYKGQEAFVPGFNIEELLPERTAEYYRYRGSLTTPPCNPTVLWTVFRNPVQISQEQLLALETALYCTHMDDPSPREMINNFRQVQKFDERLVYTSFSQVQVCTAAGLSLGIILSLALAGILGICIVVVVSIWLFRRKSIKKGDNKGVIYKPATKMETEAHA

Molecule	Ki (hCA I; [3]) [µM]	Ki (hCA IX; [3]) [µM]	Ki (hCA II [1]) [µM]	Ki (hCA XII; [3]) [µM]	Ki (hCA I; [4]) [µM]	Ki (hCA IX; [4]) [µM]	Ki (hCA XII; [4]) [µM]	Ki (hCA II [2]) [µM]
CCOP1(=O)CC=Cc2cc([N+](=O)[O-])ccc2O1 (stereo not shown) [6g, 2-Ethoxy-7-nitro-3H-benzo[f][1,2]oxaphosphepine 2-oxide]	> 100	3.9	> 100	0.95				
CCOP1(=O)CC=Cc2cc(I)ccc2O1 (stereo not shown) [6b, 2-Ethoxy-7-iodo-3H-benzo[f][1,2]oxaphosphepine 2-oxide]	> 100	4.7	> 100	2.4				
CCOP1(=O)CC=Cc2cccc(Br)c2O1 (stereo not shown) [6d, 9-Bromo-2-ethoxy-3H-benzo[f][1,2]oxaphosphepine 2-oxide]	> 100	11.3	> 100	3.3				
O=P1(O)CC=Cc2cc(Cl)cc(Cl)c2O1 [7f, 7,9-Dichloro-2-hydroxy-3H-benzo[f][1,2]oxaphosphepine 2-oxide]	> 100	0.8	> 100	1.7				
CCOP1(=O)CC=Cc2cc(Cl)cc(Cl)c2O1 (stereo not shown) [6f, 7,9-Dichloro-2-ethoxy-3H-benzo[f][1,2]oxaphosphepine 2-oxide]	> 100	6.1	> 100	3.4				
CCOP1(=O)CC=Cc2cccc(OC)c2O1 (stereo not shown) [6e, 2-Ethoxy-9-methoxy-3H-benzo[f][1,2]oxaphosphepine 2-oxide]	> 100	9	> 100	7.4				
CCOP1(=O)CC=Cc2cc(Br)ccc2O1 (stereo not shown) [6c, 7-Bromo-2-ethoxy-3H-benzo[f][1,2]oxaphosphepine 2-oxide]	> 100	0.76	> 100	1.6				
O=P1(O)CC=Cc2cc(I)ccc2O1 [7b, 2-Hydroxy-7-iodo-3H-benzo[f][1,2]oxaphosphepine 2-oxide]	> 100	0.88	> 100	0.68				
O=[N+]([O-])c1ccc2c(c1)C=CCP(=O)(O)O2 [7g, 2-Hydroxy-7-nitro-3H-benzo[f][1,2]oxaphosphepine 2-oxide]	> 100	0.67	> 100	1				
CCOP1(=O)CC=Cc2ccccc2O1 (stereo not shown) [6a, 2-Ethoxy-3H-benzo[f][1,2]oxaphosphepine 2-oxide]	> 100	0.82	> 100					
COc1cccc2c1OP(=O)(O)CC=C2 [7e, 2-Hydroxy-9-methoxy-3H-benzo[f][1,2]oxaphosphepine 2-oxide]	> 100	1.8	> 100	1.2				
2-Hydroxy-3H-benzo[f][1,2]oxaphosphepine 2-oxide [7a]					> 100	1.3	0.51	> 100
O=P1(O)CC=Cc2cc(Br)ccc2O1 [7c, 7-Bromo-2-hydroxy-3H-benzo[f][1,2]oxaphosphepine 2-oxide]	> 100	1	> 100	0.96				
O=P1(O)CC=Cc2cccc(Br)c2O1 [7d, 9-Bromo-2-hydroxy-3H-benzo[f][1,2]oxaphosphepine 2-oxide]	> 100	2.5	> 100	1.8				
